Values joined by “and” are separate entries in the source; they are usually repeats but may differ in a detail not shown here. Equal values may be shown once.
How the values were obtained:
Experiment in all cases: microbe, parasite or virus in culture
Type in all cases: cell-based
[1] = tested on: M. tuberculosis Pyr-R ATCC 35828; details: Mycobacterium tuberculosis, ATCC35828
[2] = tested on: M. tuberculosis Rifa-R ATCC 35838; details: Mycobacterium tuberculosis, ATCC35838
[3] = tested on: M. tuberculosis Strepto-R ATCC 35820; details: Mycobacterium tuberculosis, ATCC35820
[4] = tested on: M. tuberculosis INH-R ATCC35822; details: Mycobacterium tuberculosis

O=C(N/N=C\c1ccc(Cl)cc1)c1nnc(-c2ccncc2)o1 [1b, (Z)-N’-(4-chlorobenzyliden)-5-(pyridin-4-yl)-1,3,4-oxadiazol-2-carbohydrazide]
MIC [1]: > 64 µg/mL
MIC [2]: > 64 µg/mL
MIC [3]: > 64 µg/mL
MIC [4]: > 64 µg/mL

O=C(N/N=C\c1ccc(Cl)cc1)c1nnc(-c2ccccc2)o1 [1i, (Z)-N’-(4-chlorobenzyliden)-5-phenyl-1,3,4-oxadiazol-2-carbohydrazide]
MIC [1]: 32 µg/mL and 97.8 µM
MIC [2]: > 64 µg/mL
MIC [3]: > 64 µg/mL
MIC [4]: > 64 µg/mL

Cc1ccc(/C=N\NC(=O)c2nnc(-c3ccncc3)o2)cc1 [1c, (Z)-N’-(4-methylbenzyliden)-5-(pyridin-4-yl)-1,3,4-oxadiazol-2-carbohydrazide]
MIC [1]: > 64 µg/mL
MIC [2]: > 64 µg/mL
MIC [3]: > 64 µg/mL
MIC [4]: > 64 µg/mL

NNC(=O)c1ccncc1 [INH, Isoniazid, reference compound]
MIC [1]: 0.25 µg/mL and 1.8 µM
MIC [2]: 0.25 µg/mL and 1.8 µM
MIC [3]: 0.25 µg/mL and 1.8 µM
MIC [4]: > 64 µg/mL

O=C(N/N=C\c1ccc[nH]1)c1nnc(-c2ccccc2)o1 [1k, (Z)-N’-((1H-pyrrol-2-yl)methylen)-5-phenyl-1,3,4-oxadiazol-2-carbohydrazide]
MIC [1]: 4 µg/mL and 14.1 µM
MIC [2]: > 64 µg/mL
MIC [3]: > 64 µg/mL
MIC [4]: > 64 µg/mL

O=C(N/N=C\c1ccc[nH]1)c1nnc(-c2ccncc2)o1 [1d, (Z)-N’-((1H-pyrrol-2-yl)methylen)-5-(pyridin-4-yl)-1,3,4-oxadiazol-2-carbohydrazide]
MIC [1]: > 64 µg/mL
MIC [2]: > 64 µg/mL
MIC [3]: > 64 µg/mL
MIC [4]: > 64 µg/mL

CO[C@H]1/C=C/O[C@@]2(C)Oc3c(C)c(O)c4c(O)c(c(/C=N/N5CCN(C)CC5)c(O)c4c3C2=O)NC(=O)/C(C)=C\C=C\[C@H](C)[C@H](O)[C@@H](C)[C@@H](O)[C@@H](C)[C@H](OC(C)=O)[C@@H]1C [RIF, reference compound]
MIC [1]: 0.25 µg/mL and 0.3 µM
MIC [2]: > 64 µg/mL
MIC [3]: 0.25 µg/mL and 0.3 µM
MIC [4]: 0.25 µg/mL and 0.3 µM

O=C(N/N=C\c1ccco1)c1nnc(-c2ccccc2)o1 [1n, (Z)-N’-(furan-2-ylmethylen)-5-phenyl-1,3,4-oxadiazol-2-carbohydrazide]
MIC [1]: 16 µg/mL and 56.6 µM
MIC [2]: 32 µg/mL and 103 µM
MIC [3]: 32 µg/mL and 103 µM
MIC [4]: > 64 µg/mL

O=C(N/N=C\c1ccncc1)c1nnc(-c2ccncc2)o1 [1f, (Z)-5-(pyridin-4-yl)-N’-(pyridin-4-ylmethylen)-1,3,4-oxadiazol-2-carbohydrazide]
MIC [1]: > 64 µg/mL
MIC [2]: > 64 µg/mL
MIC [3]: > 64 µg/mL
MIC [4]: > 64 µg/mL

O=C(N/N=C\c1ccncc1)c1nnc(-c2ccccc2)o1 [1m, (Z)-5-phenyl-N’-(pyridin-4-ylmethylen)-1,3,4-oxadiazol-2-carbohydrazide]
MIC [1]: 16 µg/mL and 54.8 µM
MIC [2]: > 64 µg/mL
MIC [3]: > 64 µg/mL
MIC [4]: > 64 µg/mL

O=C(N/N=C\c1ccccc1)c1nnc(-c2ccncc2)o1 [1a, (Z)-N’-benzyliden-5-(pyridin-4-yl)-1,3,4-oxadiazol-2-carbohydrazide]
MIC [1]: > 64 µg/mL
MIC [2]: > 64 µg/mL
MIC [3]: > 64 µg/mL
MIC [4]: > 64 µg/mL

O=C(N/N=C\c1ccccc1)c1nnc(-c2ccccc2)o1 [1h, (Z)-N’-benzyliden-5-phenyl-1,3,4-oxadiazol-2-carbohydrazide]
MIC [1]: 64 µg/mL and 196 µM
MIC [2]: > 64 µg/mL
MIC [3]: > 64 µg/mL
MIC [4]: > 64 µg/mL

Cc1ccc(C=NNC(=O)c2nnc(-c3ccccc3)o2)cc1 (mixture of isomers) [1j, (E/Z)-N’-(4-methylbenzyliden)-5-phenyl-1,3,4-oxadiazol-2-carbohydrazide]
MIC [1]: 16 µg/mL and 52.2 µM
MIC [2]: > 64 µg/mL
MIC [3]: > 64 µg/mL
MIC [4]: > 64 µg/mL

O=C(N/N=C\c1ccccn1)c1nnc(-c2ccncc2)o1 [1e, (Z)-N’-(pyridin-2-ylmethylen)-5-(pyridin-4-yl)-1,3,4-oxadiazol-2-carbohydrazide]
MIC [1]: 4 µg/mL and 13.6 µM
MIC [2]: 32 µg/mL and 108 µM
MIC [3]: 32 µg/mL and 108 µM
MIC [4]: > 64 µg/mL

O=C(N/N=C\c1ccccn1)c1nnc(-c2ccccc2)o1 [1l, (Z)-5-phenyl-N’-(pyridin-2-ylmethylen)-1,3,4-oxadiazol-2-carbohydrazide]
MIC [1]: 4 µg/mL and 13.6 µM
MIC [2]: 32 µg/mL and 54.4 µM
MIC [3]: 64 µg/mL and 109 µM
MIC [4]: > 64 µg/mL

O=C(N/N=C\c1ccco1)c1nnc(-c2ccncc2)o1 [1g, (Z)-N’-(furan-2-ylmethylen)-5-(pyridin-4-yl)-1,3,4-oxadiazol-2-carbohydrazide]
MIC [1]: > 64 µg/mL
MIC [2]: > 64 µg/mL
MIC [3]: > 64 µg/mL
MIC [4]: > 64 µg/mL

— paper PMC9735621, “Synthesis, Biological Evaluation and Computational Studies of New Hydrazide Derivatives Containing 1,3,4-Oxadiazole as Antitubercular Agents” (International Journal of Molecular Sciences, 2022)
